Legend:
[1] = Selenium stability in sterilized multi trace element solutions, recovery of initial concentration (Example 4, FIGS. 1-3); details: for Selenium concentration during storage: FIGS. 1-3
Description: FIGS. 1-3: The recovery of the initial concentration of the different trace elements in percent (%) is indicated on the Y-axis of the Figures. The analyzed timepoints are is indicated on the X-axis. The timepoint −0.5 corresponds to the results of TE dosage on unsterilized sample at T0. Timepoint 0 corresponds to the results of TE dosage right after sterilization. Timepoint 0.5 correspond to the results of TE dosage after an accelerated stability stress cycle (i.e. three repetition of alternatively 5° C./50° C., 48 h/48 h). Timepoints 1, 3 and 6 correspond to the results of TE dosage after 1 month, 3 months and 6 months storage at 40° C./25% RH.
For the three tested solutions containing different forms of selenium, the selenium is mixed with other TE (Zn, Cu, Mn, F, I, Mo, Cr, Fe), which were introduced as chloride salts. The solutions were acidified to pH 2.2 using malic acid and underwent terminal heat sterilization prior to storage.

[2] = Storage stability of selenium sources in a separate chamber (Example 3); details: separated chamber, alone or together with other trace elements; after 6 months storage at 40° C./25% RH
Description: Selenate was introduced with other trace elements into a separate chamber from macronutrients.

[3] = cited from earlier work
[4] = Pediaven, trace elements in the glucose chamber; announced July 2014; cited from earlier work
[5] = mixed with other TE, pH 2.2 with malic acid, terminal heat sterilization, storage at 40° C./25% RH, selenate and selenomethionine compared with selenite
[6] = mixed with other TE, pH 2.2 with malic acid, terminal heat sterilization

SMILES | Stability of selenium after storage for three months [1, 5] | Stability in solution [2] | Selenium concentration during storage [1, 6] | further results
O=[Se](O)O [selenite, reference compound] | lack of stability | – | – | –
O=[Se](=O)(O)O [sodium selenate] | better stability | remained stable | remained stable | –
[Na+].[Na+].[O]=[Mo](=[O])([O-])[O-] [Na2MoO4, 2H2O, sodium molybdate] | – | – | – | Chemical form; Solubility in water [3]: <840 mg/mL
C[Se]CC[C@H](N)C(=O)O [selenomethionine] | – | – | remained stable | Stability of selenium after storage for three months ([1]; pH 2.2): better stability
O=[Se]=O [selenium dioxide] | – | – | – | Presence of selenium in the finished product [4]: absent in the finished product
N[C@@H](C[SeH])C(=O)O [selenocysteine] | – | remained stable | – | –

Source: patent US20230129595A1, “PARENTERAL NUTRITION SOLUTION COMPRISING A SELENIUM SOURCE” (BAXTER INTERNATIONAL INC., priority 2019, published 2023)
